{"source": "the supplement of paper PMC10307832", "assay_in_all_cases": "relative viability (nuclei count vs DMSO), 5 days (fraction); higher = more cells survive", "key": {"[1]": {"tested_on": "EKVX", "procedure,_shortened": "(§1)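 The day after seeding in 1536-well plates, lung cancer cell lines were treated by pin tool with a single drug, or with a fixed anchor-drug dose together with five library-drug doses (not always all listed) in √10 steps. After 5 days, a combined fix-and-stain solution (final 0.05% Triton X-100, 1% formaldehyde, 1 ug/ml Hoechst) was added. Nuclei counted on 4× images gave relative viability as treated counts over vehicle counts, reported as the median of duplicate plates.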"}, "[2]": {"tested_on": "NCI-H520", "procedure,_shortened": "as §1"}, "[3]": {"tested_on": "HCC-827", "procedure,_shortened": "as §1"}, "[4]": {"tested_on": "PC-14", "procedure,_shortened": "as §1"}, "[5]": {"tested_on": "LK-2", "procedure,_shortened": "as §1"}, "[6]": {"tested_on": "SW 1573", "procedure,_shortened": "as §1"}, "[7]": {"tested_on": "ABC-1", "procedure,_shortened": "as §1"}, "[8]": {"tested_on": "NCI-H661", "procedure,_shortened": "as §1"}, "[9]": {"tested_on": "H3255", "procedure,_shortened": "as §1"}, "[10]": {"tested_on": "HCC-15", "procedure,_shortened": "as §1"}, "[11]": {"tested_on": "NCI-H2405", "procedure,_shortened": "as §1"}, "[12]": {"tested_on": "SK-MES-1", "procedure,_shortened": "as §1"}, "[13]": {"tested_on": "COR-L23", "procedure,_shortened": "as §1"}, "[14]": {"tested_on": "NCI-H2228", "procedure,_shortened": "as §1"}, "[15]": {"tested_on": "NCI-H1651", "procedure,_shortened": "as §1"}, "[16]": {"tested_on": "CAL-12T", "procedure,_shortened": "as §1"}, "[17]": {"tested_on": "PC-3 [JPC-3]", "procedure,_shortened": "as §1"}, "[18]": {"tested_on": "NCI-H1355", "procedure,_shortened": "as §1"}, "[19]": {"tested_on": "NCI-H1437", "procedure,_shortened": "as §1"}, "[20]": {"tested_on": "NCI-H322M", "procedure,_shortened": "as §1"}, "[21]": {"tested_on": "NCI-H1563", "procedure,_shortened": "as §1"}, "[22]": {"tested_on": "NCI-H1650", "procedure,_shortened": "as §1"}, "[23]": {"tested_on": "NCI-H1734", "procedure,_shortened": "as §1"}, "[24]": {"tested_on": "RERF-LC-KJ", "procedure,_shortened": "as §1"}}, "data": [{"smiles": "C[C@@H]1CN(CC(=O)Nc2ccc3c(c2)Cc2cccc(-c4cc(=O)cc(N5CCOCC5)o4)c2S3)C[C@H](C)O1", "note": "+ Cc1nc(Nc2ncc(C(=O)Nc3c(C)cccc3Cl)s2)cc(N2CCN(CCO)CC2)n1 [Dasatinib] (partner 0.075 µM)", "values": [{"measurement": "relative viability", "setting": "[1]; first compound 0.04 µM", "value": 0.576}, {"measurement": "relative viability", "setting": "[1]; first compound 0.1265 µM", "value": 0.568}, {"measurement": "relative viability", "setting": "[1]; first compound 0.4 µM", "value": 0.603}, {"measurement": "relative viability", "setting": "[1]; first compound 4 µM", "value": 0.475}, {"measurement": "relative viability", "setting": "[2]; first compound 0.04 µM", "value": 0.216}, {"measurement": "relative viability", "setting": "[2]; first compound 0.1265 µM", "value": 0.227}, {"measurement": "relative viability", "setting": "[2]; first compound 0.4 µM", "value": 0.248}, {"measurement": "relative viability", "setting": "[2]; first compound 4 µM", "value": 0.136}, {"measurement": "relative viability", "setting": "[3]; first compound 0.04 µM", "value": 0.396}, {"measurement": "relative viability", "setting": "[3]; first compound 0.1265 µM", "value": 0.324}, {"measurement": "relative viability", "setting": "[3]; first compound 0.4 µM", "value": 0.344}, {"measurement": "relative viability", "setting": "[3]; first compound 4 µM", "value": 0.311}, {"measurement": "relative viability", "setting": "[4]; first compound 0.04 µM", "value": 0.286}, {"measurement": "relative viability", "setting": "[4]; first compound 0.1265 µM", "value": 0.254}, {"measurement": "relative viability", "setting": "[4]; first compound 0.4 µM", "value": 0.314}, {"measurement": "relative viability", "setting": "[4]; first compound 4 µM", "value": 0.147}, {"measurement": "relative viability", "setting": "[5]; first compound 0.1265 µM", "value": 0.301}, {"measurement": "relative viability", "setting": "[5]; first compound 0.4 µM", "value": 0.336}, {"measurement": "relative viability", "setting": "[5]; first compound 4 µM", "value": 0.437}, {"measurement": "relative viability", "setting": "[6]; first compound 0.04 µM", "value": 0.736}, {"measurement": "relative viability", "setting": "[6]; first compound 0.1265 µM", "value": 0.613}, {"measurement": "relative viability", "setting": "[6]; first compound 0.4 µM", "value": 0.515}, {"measurement": "relative viability", "setting": "[6]; first compound 4 µM", "value": 0.355}, {"measurement": "relative viability", "setting": "[7]; first compound 0.1265 µM", "value": 0.571}, {"measurement": "relative viability", "setting": "[7]; first compound 0.4 µM", "value": 0.447}, {"measurement": "relative viability", "setting": "[7]; first compound 4 µM", "value": 0.504}, {"measurement": "relative viability", "setting": "[8]; first compound 0.04 µM", "value": 0.919}, {"measurement": "relative viability", "setting": "[8]; first compound 0.1265 µM", "value": 0.881}, {"measurement": "relative viability", "setting": "[8]; first compound 0.4 µM", "value": 0.968}, {"measurement": "relative viability", "setting": "[8]; first compound 4 µM", "value": 0.797}, {"measurement": "relative viability", "setting": "[9]; first compound 0.04 µM", "value": 0.432}, {"measurement": "relative viability", "setting": "[9]; first compound 0.1265 µM", "value": 0.347}, {"measurement": "relative viability", "setting": "[9]; first compound 0.4 µM", "value": 0.424}, {"measurement": "relative viability", "setting": "[9]; first compound 4 µM", "value": 0.346}, {"measurement": "relative viability", "setting": "[10]; first compound 0.04 µM", "value": 0.659}, {"measurement": "relative viability", "setting": "[10]; first compound 0.1265 µM", "value": 0.6}, {"measurement": "relative viability", "setting": "[10]; first compound 0.4 µM", "value": 0.531}, {"measurement": "relative viability", "setting": "[10]; first compound 4 µM", "value": 0.455}, {"measurement": "relative viability", "setting": "[11]; first compound 0.04 µM", "value": 0.226}, {"measurement": "relative viability", "setting": "[11]; first compound 0.1265 µM", "value": 0.187}, {"measurement": "relative viability", "setting": "[11]; first compound 0.4 µM", "value": 0.229}, {"measurement": "relative viability", "setting": "[11]; first compound 4 µM", "value": 0.169}, {"measurement": "relative viability", "setting": "[12]; first compound 0.04 µM", "value": 0.444}, {"measurement": "relative viability", "setting": "[12]; first compound 0.1265 µM", "value": 0.353}, {"measurement": "relative viability", "setting": "[12]; first compound 0.4 µM", "value": 0.398}, {"measurement": "relative viability", "setting": "[12]; first compound 4 µM", "value": 0.263}, {"measurement": "relative viability", "setting": "[13]; first compound 0.04 µM", "value": 0.588}, {"measurement": "relative viability", "setting": "[13]; first compound 0.1265 µM", "value": 0.46}, {"measurement": "relative viability", "setting": "[13]; first compound 0.4 µM", "value": 0.593}, {"measurement": "relative viability", "setting": "[13]; first compound 4 µM", "value": 0.369}, {"measurement": "relative viability", "setting": "[14]; first compound 0.04 µM", "value": 0.595}, {"measurement": "relative viability", "setting": "[14]; first compound 0.1265 µM", "value": 0.498}, {"measurement": "relative viability", "setting": "[14]; first compound 0.4 µM", "value": 0.423}, {"measurement": "relative viability", "setting": "[14]; first compound 4 µM", "value": 0.383}, {"measurement": "relative viability", "setting": "[15]; first compound 0.04 µM", "value": 0.47}, {"measurement": "relative viability", "setting": "[15]; first compound 0.1265 µM", "value": 0.411}, {"measurement": "relative viability", "setting": "[15]; first compound 0.4 µM", "value": 0.478}, {"measurement": "relative viability", "setting": "[15]; first compound 4 µM", "value": 0.348}, {"measurement": "relative viability", "setting": "[16]; first compound 0.04 µM", "value": 0.515}, {"measurement": "relative viability", "setting": "[16]; first compound 0.1265 µM", "value": 0.535}, {"measurement": "relative viability", "setting": "[16]; first compound 0.4 µM", "value": 0.429}, {"measurement": "relative viability", "setting": "[16]; first compound 4 µM", "value": 0.2}, {"measurement": "relative viability", "setting": "[17]; first compound 0.04 µM", "value": 0.983}, {"measurement": "relative viability", "setting": "[17]; first compound 0.1265 µM", "value": 1.06}, {"measurement": "relative viability", "setting": "[17]; first compound 0.4 µM", "value": 1.01}, {"measurement": "relative viability", "setting": "[17]; first compound 4 µM", "value": 0.918}, {"measurement": "relative viability", "setting": "[18]; first compound 0.04 µM", "value": 0.639}, {"measurement": "relative viability", "setting": "[18]; first compound 0.1265 µM", "value": 0.723}, {"measurement": "relative viability", "setting": "[18]; first compound 0.4 µM", "value": 0.604}, {"measurement": "relative viability", "setting": "[18]; first compound 4 µM", "value": 0.646}, {"measurement": "relative viability", "setting": "[19]; first compound 0.04 µM", "value": 0.334}, {"measurement": "relative viability", "setting": "[19]; first compound 0.1265 µM", "value": 0.34}, {"measurement": "relative viability", "setting": "[19]; first compound 0.4 µM", "value": 0.387}, {"measurement": "relative viability", "setting": "[19]; first compound 4 µM", "value": 0.359}, {"measurement": "relative viability", "setting": "[20]; first compound 0.04 µM", "value": 0.277}, {"measurement": "relative viability", "setting": "[20]; first compound 0.1265 µM", "value": 0.262}, {"measurement": "relative viability", "setting": "[20]; first compound 0.4 µM", "value": 0.26}, {"measurement": "relative viability", "setting": "[20]; first compound 4 µM", "value": 0.24}, {"measurement": "relative viability", "setting": "[21]; first compound 0.04 µM", "value": 0.433}, {"measurement": "relative viability", "setting": "[21]; first compound 0.1265 µM", "value": 0.429}, {"measurement": "relative viability", "setting": "[21]; first compound 0.4 µM", "value": 0.445}, {"measurement": "relative viability", "setting": "[21]; first compound 4 µM", "value": 0.433}, {"measurement": "relative viability", "setting": "[22]; first compound 0.04 µM", "value": 0.31}, {"measurement": "relative viability", "setting": "[22]; first compound 0.1265 µM", "value": 0.293}, {"measurement": "relative viability", "setting": "[22]; first compound 0.4 µM", "value": 0.301}, {"measurement": "relative viability", "setting": "[22]; first compound 4 µM", "value": 0.244}, {"measurement": "relative viability", "setting": "[23]; first compound 0.04 µM", "value": 0.475}, {"measurement": "relative viability", "setting": "[23]; first compound 0.1265 µM", "value": 0.489}, {"measurement": "relative viability", "setting": "[23]; first compound 0.4 µM", "value": 0.5}, {"measurement": "relative viability", "setting": "[23]; first compound 4 µM", "value": 0.517}, {"measurement": "relative viability", "setting": "[24]; first compound 0.04 µM", "value": 0.877}, {"measurement": "relative viability", "setting": "[24]; first compound 0.1265 µM", "value": 0.813}, {"measurement": "relative viability", "setting": "[24]; first compound 0.4 µM", "value": 0.782}, {"measurement": "relative viability", "setting": "[24]; first compound 4 µM", "value": 0.665}]}]}
